Assay results as given in the Kinase Knowledgebase extract (Sharma et al. 2016).

Tests used:
[1] = target: EGFR (Human), P00533 [T790M/L858R]; experiment: Enzyme Assay
[2] = target: EGFR (human), P00533 [L858R]; experiment: Enzyme Assay
[3] = target: EGFR (human), P00533 [WT]
Chain of EGFR (human), P00533 [WT] (P00533 whole entry, looked up): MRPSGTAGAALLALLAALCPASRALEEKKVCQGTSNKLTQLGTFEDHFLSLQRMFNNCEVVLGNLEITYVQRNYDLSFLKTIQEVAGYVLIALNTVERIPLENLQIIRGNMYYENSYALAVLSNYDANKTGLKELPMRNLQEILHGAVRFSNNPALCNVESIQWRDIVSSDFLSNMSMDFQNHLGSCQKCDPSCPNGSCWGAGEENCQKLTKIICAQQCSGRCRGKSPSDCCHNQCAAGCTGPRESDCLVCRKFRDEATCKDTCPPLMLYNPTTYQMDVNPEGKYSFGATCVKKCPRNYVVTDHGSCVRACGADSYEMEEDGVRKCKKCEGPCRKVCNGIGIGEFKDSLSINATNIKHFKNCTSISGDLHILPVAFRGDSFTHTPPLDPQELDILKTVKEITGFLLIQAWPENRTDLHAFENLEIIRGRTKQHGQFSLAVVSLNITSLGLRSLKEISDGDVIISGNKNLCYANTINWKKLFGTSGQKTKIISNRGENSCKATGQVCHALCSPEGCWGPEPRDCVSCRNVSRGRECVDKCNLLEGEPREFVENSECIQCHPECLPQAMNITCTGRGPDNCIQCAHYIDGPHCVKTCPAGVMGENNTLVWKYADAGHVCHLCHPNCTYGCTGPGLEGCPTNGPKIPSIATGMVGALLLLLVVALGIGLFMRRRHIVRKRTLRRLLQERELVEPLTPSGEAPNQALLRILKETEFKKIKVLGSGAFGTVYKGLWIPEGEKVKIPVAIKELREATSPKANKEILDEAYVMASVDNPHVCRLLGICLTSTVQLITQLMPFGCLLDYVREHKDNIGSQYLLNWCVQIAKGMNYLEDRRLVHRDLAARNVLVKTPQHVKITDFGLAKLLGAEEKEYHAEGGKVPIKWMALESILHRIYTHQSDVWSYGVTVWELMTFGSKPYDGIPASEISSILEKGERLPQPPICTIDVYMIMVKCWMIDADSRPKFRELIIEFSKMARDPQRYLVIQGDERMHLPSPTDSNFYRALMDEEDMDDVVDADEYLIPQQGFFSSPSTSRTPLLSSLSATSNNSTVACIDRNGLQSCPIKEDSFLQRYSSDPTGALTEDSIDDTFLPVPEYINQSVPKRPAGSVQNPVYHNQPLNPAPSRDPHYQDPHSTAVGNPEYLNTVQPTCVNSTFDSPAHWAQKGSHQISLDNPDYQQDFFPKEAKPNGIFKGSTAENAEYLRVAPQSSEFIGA

Chain of EGFR (Human), P00533 [T790M/L858R] (P00533 whole entry T790M/L858R, looked up): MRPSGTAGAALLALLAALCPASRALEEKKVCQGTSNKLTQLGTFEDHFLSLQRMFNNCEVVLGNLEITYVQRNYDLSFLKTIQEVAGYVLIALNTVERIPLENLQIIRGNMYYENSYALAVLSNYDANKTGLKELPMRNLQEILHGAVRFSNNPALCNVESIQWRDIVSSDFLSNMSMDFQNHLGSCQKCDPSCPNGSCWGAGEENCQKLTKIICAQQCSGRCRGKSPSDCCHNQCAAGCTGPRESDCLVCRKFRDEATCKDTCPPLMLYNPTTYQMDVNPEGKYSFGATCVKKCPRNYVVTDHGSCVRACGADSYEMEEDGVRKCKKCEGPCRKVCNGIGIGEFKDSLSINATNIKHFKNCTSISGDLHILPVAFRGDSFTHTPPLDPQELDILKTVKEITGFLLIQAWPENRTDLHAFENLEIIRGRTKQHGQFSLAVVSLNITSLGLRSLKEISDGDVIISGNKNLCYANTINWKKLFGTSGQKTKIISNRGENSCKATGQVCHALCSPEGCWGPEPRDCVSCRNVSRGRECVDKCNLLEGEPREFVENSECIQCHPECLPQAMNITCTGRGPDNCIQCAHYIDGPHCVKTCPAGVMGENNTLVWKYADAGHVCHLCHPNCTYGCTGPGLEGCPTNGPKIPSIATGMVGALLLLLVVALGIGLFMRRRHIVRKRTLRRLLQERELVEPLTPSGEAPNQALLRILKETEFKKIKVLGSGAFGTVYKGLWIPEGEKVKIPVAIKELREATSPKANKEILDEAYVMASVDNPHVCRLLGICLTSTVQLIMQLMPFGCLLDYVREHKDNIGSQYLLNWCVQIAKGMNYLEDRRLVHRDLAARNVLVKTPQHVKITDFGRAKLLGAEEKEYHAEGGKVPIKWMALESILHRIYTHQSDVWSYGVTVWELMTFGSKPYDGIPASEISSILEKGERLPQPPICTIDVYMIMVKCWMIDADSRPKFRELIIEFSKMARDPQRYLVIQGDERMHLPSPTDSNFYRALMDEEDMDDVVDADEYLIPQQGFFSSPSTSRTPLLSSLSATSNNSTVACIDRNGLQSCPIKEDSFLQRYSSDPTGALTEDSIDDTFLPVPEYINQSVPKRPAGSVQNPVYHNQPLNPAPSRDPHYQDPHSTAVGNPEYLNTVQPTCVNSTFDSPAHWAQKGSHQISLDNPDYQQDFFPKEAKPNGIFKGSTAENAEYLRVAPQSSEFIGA
Chain of EGFR (human), P00533 [L858R] (P00533 whole entry L858R, looked up): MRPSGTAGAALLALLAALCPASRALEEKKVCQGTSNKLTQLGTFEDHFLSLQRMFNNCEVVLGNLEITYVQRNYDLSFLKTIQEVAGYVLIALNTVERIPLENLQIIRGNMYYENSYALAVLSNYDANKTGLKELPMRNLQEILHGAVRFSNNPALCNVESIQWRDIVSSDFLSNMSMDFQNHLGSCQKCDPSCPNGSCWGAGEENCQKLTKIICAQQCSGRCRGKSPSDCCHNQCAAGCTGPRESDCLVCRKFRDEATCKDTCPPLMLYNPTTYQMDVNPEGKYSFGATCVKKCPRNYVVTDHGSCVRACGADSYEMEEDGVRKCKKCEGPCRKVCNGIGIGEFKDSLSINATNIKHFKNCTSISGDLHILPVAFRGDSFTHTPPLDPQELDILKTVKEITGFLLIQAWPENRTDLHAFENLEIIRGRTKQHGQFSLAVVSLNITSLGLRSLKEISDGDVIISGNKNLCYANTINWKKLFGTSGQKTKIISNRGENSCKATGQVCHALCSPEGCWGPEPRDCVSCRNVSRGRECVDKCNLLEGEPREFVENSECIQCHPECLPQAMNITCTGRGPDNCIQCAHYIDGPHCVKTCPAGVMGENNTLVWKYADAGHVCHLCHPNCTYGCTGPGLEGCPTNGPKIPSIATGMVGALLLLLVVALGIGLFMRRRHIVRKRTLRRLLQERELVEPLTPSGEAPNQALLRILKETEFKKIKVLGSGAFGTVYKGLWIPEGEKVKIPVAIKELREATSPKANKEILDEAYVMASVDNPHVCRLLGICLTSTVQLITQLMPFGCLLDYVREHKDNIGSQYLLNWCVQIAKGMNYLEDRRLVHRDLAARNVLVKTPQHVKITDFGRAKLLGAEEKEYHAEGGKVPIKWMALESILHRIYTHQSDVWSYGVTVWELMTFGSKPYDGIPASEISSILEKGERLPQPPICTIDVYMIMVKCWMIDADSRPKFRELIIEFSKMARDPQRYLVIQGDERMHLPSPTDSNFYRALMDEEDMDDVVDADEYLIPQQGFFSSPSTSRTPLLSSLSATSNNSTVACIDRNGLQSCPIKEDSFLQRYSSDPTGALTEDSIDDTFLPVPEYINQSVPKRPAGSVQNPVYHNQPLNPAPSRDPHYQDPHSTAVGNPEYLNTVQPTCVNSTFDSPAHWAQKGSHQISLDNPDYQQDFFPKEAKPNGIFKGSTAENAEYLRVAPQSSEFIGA

IC50 [1] [nM] | IC50 [2] [nM] | IC50 [3] [nM] | SMILES
0.76 | 0.26 | – | O=C1CCc2c(Oc3ccc4c(c3)[C@H]3[C@H](NC(=O)c5ccc(CN6CCN(CCO)CC6)c(C(F)(F)F)c5)[C@H]3O4)ccnc2N1
3.1 | 0.67 | – | CN(C)[C@@H]1CCN(Cc2ccc(C(=O)N[C@@H]3[C@H]4Oc5ccc(Oc6ccnc7c6CCC(=O)N7)cc5[C@@H]34)cc2C(F)(F)F)C1
0.49 | 0.29 | – | CN1CCN(Cc2ccc(C(=O)N[C@@H]3[C@H]4Oc5ccc(Oc6ccnc7c6COC(=O)N7)cc5[C@@H]34)cc2C(F)(F)F)CC1
1140 | 68 | – | O=C(C=Cc1cccc(C(F)(F)F)c1)N[C@@H]1[C@H]2Oc3ccc(Oc4ccnc5c4CCC(=O)N5)cc3[C@@H]12
– | – | 8.9 | CCCCCCCCCCCC(=O)N[C@@H]1[C@H]2Oc3ccc(Oc4ccnc5c4CCC(=O)N5)cc3[C@@H]12
0.42 | 0.27 | – | CN(C)C1CCN(Cc2ccc(C(=O)N[C@@H]3[C@H]4Oc5ccc(Oc6ccnc7c6CCC(=O)N7)cc5[C@@H]34)cc2C(F)(F)F)CC1
3.1 | 0.5 | 1.5 | Cc1cc(C(=O)N[C@@H]2[C@H]3Oc4ccc(Oc5ccnc6c5CCC(=O)N6)cc4[C@@H]23)ccc1CN1CCN(C)CC1
32 | 12 | – | CN1CCN(CCOc2ccc(C(=O)N[C@@H]3[C@H]4Oc5ccc(Oc6ccnc7c6CCC(=O)N7)cc5[C@@H]34)cc2C(F)(F)F)CC1
0.3 | 0.3 | – | CN(C)[C@H]1CCN(Cc2ccc(C(=O)N[C@@H]3[C@H]4Oc5ccc(Oc6ccnc7c6CCC(=O)N7)cc5[C@@H]34)cc2C(F)(F)F)C1
